The values below come from ChEMBL document CHEMBL1201862, “PubChem BioAssay data set” (2004).

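Assay format: 96-well plates, 48-hour exposure. Here, GI50 denotes the concentration required for 50% inhibition of growth.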 Active and inactive are the calls of the source. Rule as the data show it: active = GI50 up to about 1.1 µM and inactive = higher.

Test systems include 786-0; BT-549; NCI-H23; Hs-578T; OVCAR-4; SW-620; T47D; KM12; HCT-116; SNB-75; Malme-3M; HCC 2998; SK-OV-3; OVCAR-8; EKVX; MCF7; LOX IMVI; MDA-N; SF-295.
Experiment in all cases: NCI tumour cell line growth inhibition, 48 h

`Cc1[nH]c2ncn(Nc3ccccc3)c(=N)c2c1Cc1ccccc1`: the GI50 is 66.1 µM (inactive) with 786-0; 3.34 µM (inactive) in the test on BT-549; 31.8 µM (inactive) in the test on NCI-H23; 8.28 µM (inactive) in the test with Hs-578T; > 27.5 µM (inactive) in the test with OVCAR-4; 34.1 µM (inactive) with SW-620. For the same compound, the GI50 was 1.07 µM (active) in the test on T47D; 5.31 µM (inactive) in the test with KM12; 0.522 µM (active) in the test on HCT-116; 71.3 µM (inactive) in the test with SNB-75; > 38.7 µM (inactive) with Malme-3M; > 100 µM (inactive) in the test with HCC 2998. The GI50 was > 100 µM (inactive) in the test with SK-OV-3; 32.9 µM (inactive) with OVCAR-8; 5.89 µM (inactive) in the test on EKVX; 5.45 µM (inactive) with MCF7; 10.7 µM (inactive) with LOX IMVI; 0.191 µM (active) with MDA-N.
Consider `O=C1CCc2c(sc3ncnc(Nc4cccc(Br)c4)c23)C1`, for which the GI50 in the test on 786-0 was 4.43 µM (inactive); in the test on BT-549, 3.77 µM (inactive); with NCI-H23, 3.01 µM (inactive); in the test with Hs-578T, 4.15 µM (inactive); in the test on OVCAR-4, 2.52 µM (inactive); in the test with SW-620 it was 3.62 µM (inactive). For the same compound, the GI50 in the test on T47D was 2.4 µM (inactive); with KM12, 3.6 µM (inactive); in the test on HCT-116, 3.56 µM (inactive); with SNB-75, 3.7 µM (inactive); in the test with Malme-3M it was 1.76 µM (inactive); with HCC 2998 it was 4.26 µM (inactive). Further, the GI50 is 3.88 µM (inactive) in the test on SF-295; 7.52 µM (inactive) in the test on SK-OV-3; 3.26 µM (inactive) in the test on OVCAR-8; 2.19 µM (inactive) in the test with EKVX; 3.93 µM (inactive) in the test on MCF7; 3.49 µM (inactive) with LOX IMVI. Moreover, the GI50 in the test with MDA-N is 2.65 µM (inactive).
Turning to `COc1ccc(-c2cc(=O)c3c(OC)c(OC)c(OC)c(OC)c3o2)cc1OC` [NOBILETIN], the GI50 in the test with 786-0 is 49.9 µM (inactive); in the test on BT-549, 62.7 µM (inactive); with NCI-H23, 47.1 µM (inactive); in the test on Hs-578T it was 21.1 µM (inactive); in the test on OVCAR-4, 28 µM (inactive); with SW-620 it was 47.5 µM (inactive). Also, the GI50 in the test with T47D was 19.5 µM (inactive); in the test on HCT-116, 72.4 µM (inactive); in the test on SNB-75, 30.5 µM (inactive); in the test on Malme-3M, > 100 µM (inactive); with HCC 2998, 32.7 µM (inactive); in the test with SF-295, 32.5 µM (inactive). The GI50 was 61.7 µM (inactive) in the test on SK-OV-3; 29.6 µM (inactive) in the test with OVCAR-8; 56.2 µM (inactive) in the test on EKVX; 4.86 µM (inactive) in the test on MCF7; 30.1 µM (inactive) in the test with LOX IMVI; 49.9 µM (inactive) in the test with MDA-N.
As for `C(=N\NC1=NCCN1)/c1ccc(-c2cn3cc(/C=N/NC4=NCCN4)ccc3n2)cc1`, the GI50 is 19 µM (inactive) in the test with 786-0; 18.2 µM (inactive) in the test on BT-549; > 100 µM (inactive) in the test with NCI-H23; > 87.3 µM (inactive) with Hs-578T; 31 µM (inactive) with OVCAR-4; > 28.2 µM (inactive) in the test with SW-620. For the same compound, the GI50 in the test with T47D was > 100 µM (inactive); in the test with KM12, > 44 µM (inactive); in the test with HCT-116 it was 10.4 µM (inactive); with SNB-75, > 100 µM (inactive); in the test with Malme-3M, 2.82 µM (inactive); in the test on HCC 2998, > 47.2 µM (inactive). Further, the GI50 with SF-295 was > 44.8 µM (inactive); in the test with SK-OV-3, > 100 µM (inactive); in the test with OVCAR-8, 37.5 µM (inactive); in the test with EKVX it was > 50.4 µM (inactive); in the test with MCF7, 2.2 µM (inactive); in the test with LOX IMVI, 7.74 µM (inactive). In the test with MDA-N, the GI50 was > 49 µM (inactive).
As for `COC(=O)[C@@H]1C=C[C@H](OC2OC(COC(C)=O)C(OC(C)=O)C(OC(C)=O)C2OC(C)=O)n2c(=O)n(-c3ccccc3)c(=O)n21` (stereo not given in full), the GI50 in the test on 786-0 is 1.41 µM (inactive); with BT-549, 2.29 µM (inactive); in the test with NCI-H23, 5.3 µM (inactive); in the test with Hs-578T, 17.3 µM (inactive); in the test on OVCAR-4 it was 1.77 µM (inactive); with SW-620 it was 1.79 µM (inactive). The GI50 in the test on T47D is 2.57 µM (inactive); in the test on KM12, 5.5 µM (inactive); in the test with HCT-116, 1.86 µM (inactive); in the test with SNB-75, 4.06 µM (inactive); in the test on Malme-3M it was 2.01 µM (inactive); with HCC 2998 it was 8 µM (inactive). In addition, the GI50 is 10.8 µM (inactive) in the test on SF-295; 15.9 µM (inactive) with SK-OV-3; 2.55 µM (inactive) in the test on OVCAR-8; 5.9 µM (inactive) in the test with EKVX; 2.35 µM (inactive) in the test with MCF7; 1.56 µM (inactive) in the test with LOX IMVI. In addition, the GI50 in the test with MDA-N was 2.57 µM (inactive).
For the compound `CC(=O)N(C(C)=O)n1c(Cc2ccc(Cl)cc2)nn(C(C)=O)c1=O`, the GI50 in the test with 786-0, in the test on BT-549, in the test on NCI-H23, with Hs-578T, in the test with OVCAR-4 and in the test with SW-620 was > 100 µM (inactive) each time. Also, the GI50 in the test with T47D, in the test on KM12, in the test with SNB-75, in the test on Malme-3M, in the test with HCC 2998 and in the test on SF-295 was > 100 µM (inactive) each time. Moreover, the GI50 with SK-OV-3, in the test on OVCAR-8, in the test with EKVX, in the test on MCF7, with LOX IMVI and in the test with MDA-N was > 100 µM (inactive) throughout.
For `NCC1OC(OC2C(N)CC(N)C(O)C2OC2OC(CO)C(O)C2O)C(N)C(O)C1O` (stereo not given), the GI50 in the test on 786-0 is > 50 µM (inactive); in the test on BT-549, > 100 µM (inactive); with NCI-H23, > 100 µM (inactive); with Hs-578T, > 100 µM (inactive); in the test on OVCAR-4, > 100 µM (inactive); with SW-620, > 100 µM (inactive). The GI50 was > 50 µM (inactive) in the test with T47D; > 50 µM (inactive) in the test on KM12; 27.8 µM (inactive) in the test on SNB-75; > 100 µM (inactive) in the test on Malme-3M; > 50 µM (inactive) in the test on HCC 2998; > 100 µM (inactive) in the test on SF-295. Further, the GI50 with SK-OV-3 is > 50 µM (inactive); in the test on OVCAR-8, > 50 µM (inactive); in the test on EKVX it was > 100 µM (inactive); in the test with MCF7 it was > 100 µM (inactive); with LOX IMVI, > 50 µM (inactive); in the test on MDA-N, > 50 µM (inactive).
On to `Cc1ccc(S(=O)(=O)N/N=C2\CCCCCCCCCCC2CN(C)C)cc1` (stereo not given), for which the GI50 with 786-0 was 15.9 µM (inactive); in the test with BT-549, 17.7 µM (inactive); in the test on NCI-H23, 23 µM (inactive); with Hs-578T, 15 µM (inactive); in the test on OVCAR-4, 18 µM (inactive); in the test on SW-620, 17.9 µM (inactive). Moreover, the GI50 in the test on T47D was 13.4 µM (inactive); with KM12, 17.9 µM (inactive); in the test on HCT-116, 14.7 µM (inactive); in the test on Malme-3M, 16.6 µM (inactive); with HCC 2998 it was 8.43 µM (inactive); with SF-295, 16.8 µM (inactive). In addition, the GI50 with SK-OV-3 was 20 µM (inactive); in the test with OVCAR-8, 16.8 µM (inactive); in the test on EKVX it was 22.9 µM (inactive); in the test on MCF7 it was 17 µM (inactive); with LOX IMVI it was 17.1 µM (inactive); in the test with MDA-N, 18.5 µM (inactive).
As for `Nc1nc2c(c(=O)[nH]1)N=C(COP(=O)(O)OP(=O)(O)O)CN2`, the GI50 in the test on 786-0, in the test on BT-549, in the test with NCI-H23, in the test with Hs-578T, with SW-620 and in the test with T47D was > 100 µM (inactive) throughout. The GI50 in the test with KM12, with HCT-116, in the test with SNB-75, in the test on Malme-3M, in the test with HCC 2998 and in the test on SF-295 was > 100 µM (inactive) each time. Moreover, the GI50 in the test with SK-OV-3, in the test with OVCAR-8, with EKVX, in the test on MCF7, with LOX IMVI and in the test with MDA-N was > 100 µM (inactive) throughout.
Take `CCOC(=O)c1c(-c2ccc(OC)cc2)c(C#N)c(=S)n(C2OC(COC(C)=O)C(OC(C)=O)C(OC(C)=O)C2OC(C)=O)c1-c1ccccc1` (stereo not given): the GI50 with 786-0 is > 100 µM (inactive); in the test on BT-549, > 100 µM (inactive); with NCI-H23 it was > 100 µM (inactive); in the test with Hs-578T, 29.9 µM (inactive); in the test with OVCAR-4, > 100 µM (inactive); in the test with SW-620, > 100 µM (inactive). The GI50 was > 100 µM (inactive) in the test with T47D; > 100 µM (inactive) with KM12; > 100 µM (inactive) in the test with HCT-116; 60 µM (inactive) with SNB-75; > 100 µM (inactive) in the test with Malme-3M; > 100 µM (inactive) in the test with HCC 2998. The GI50 in the test on SF-295, with SK-OV-3, with MCF7, in the test on LOX IMVI and in the test on MDA-N was > 100 µM (inactive) each time.
In the case of `c1ccc(C/C(=N\Nc2nc3ccccc3[nH]2)c2ccccn2)cc1`, the GI50 is 0.0316 µM (active) in the test on 786-0; 0.248 µM (active) with BT-549; 0.019 µM (active) in the test with NCI-H23; 0.879 µM (active) in the test on Hs-578T; < 0.01 µM (active) in the test with OVCAR-4; < 0.01 µM (active) with SW-620. The GI50 in the test on T47D was < 0.01 µM (active); in the test on KM12, 0.16 µM (active); in the test on HCT-116 it was < 0.01 µM (active); in the test on SNB-75, 0.403 µM (active); with Malme-3M, < 0.0347 µM (active); in the test with HCC 2998 it was 13.1 µM (inactive). In addition, the GI50 was 1.92 µM (inactive) with SF-295; 0.033 µM (active) with SK-OV-3; 0.0235 µM (active) in the test on OVCAR-8; < 0.01 µM (active) in the test with MCF7; 0.119 µM (active) with LOX IMVI; 0.262 µM (active) with MDA-N.
